In ChEMBL document CHEMBL5505979, “Novel aminothiazoximone-corbelled ethoxycarbonylpyrimidones with antibiofilm activity to conquer Gram-negative bacteria through potential multitargeting effects” (Eur J Med Chem, 2024):
≈ marks a conversion by molar mass, not a printed value. Calls of active or inactive are those of the source. No cut-off for these calls is given here.

Assays:
[1] = system: Enterococcus faecalis; experiment: Anti-bacterial activity against Enterococcus faecalis V583 assessed as inhibition of bacterial growth; assay type: functional
[2] = system: Klebsiella pneumoniae; experiment: Anti-bacterial activity against Klebsiella pneumoniae KPN325 assessed as inhibition of bacterial growth; assay type: functional; conditions: Klebsiella pneumoniae, KPN325; read-out: MIC
[3] = system: Staphylococcus aureus; experiment: Anti-bacterial activity against Staphylococcus aureus CMCC (B) 26001 assessed as inhibition of bacterial growth; assay type: functional
[4] = system: Escherichia coli; experiment: Anti-bacterial activity against Escherichia coli ATCC 25922 assessed as inhibition of bacterial growth; assay type: functional
[5] = system: Candida albicans; experiment: Anti-fungal activity against Candida albicans assessed as inhibition of fungal growth; assay type: functional; conditions: Candida albicans; read-out: MIC
[6] = system: Candida tropicalis; experiment: Anti-fungal activity against Candida tropicalis assessed as inhibition of fungal growth; assay type: functional; conditions: Candida tropicalis; read-out: MIC
[7] = system: Acinetobacter baumannii; experiment: Antibiofilm activity against Acinetobacter baumannii assessed as inhibition rate of bio-film formation at 0.5 times of MIC concentration by Crystal violet assay relative to control; assay type: functional
[8] = system: Acinetobacter baumannii; experiment: Antibiofilm activity against Acinetobacter baumannii assessed as inhibition rate of bio-film formation at 8 times of MIC concentration by Crystal violet assay relative to control; assay type: functional
[9] = system: Acinetobacter baumannii; experiment: Antibiofilm activity against Acinetobacter baumannii assessed as decrease in biofilm formation at MIC concentration relative to control; assay type: functional; parameters: scale not given: the % may be the effect or the level left
[10] = system: Acinetobacter baumannii; experiment: Reduction of biofilm virulent factors in Acinetobacter baumannii assessed as decrease in hydrophobicity index; assay type: functional, organism-based
[11] = system: Acinetobacter baumannii; experiment: Reduction of biofilm virulent factors in Acinetobacter baumannii assessed as decrease in extracellular polymeric substances (EPS) by measuring optical density at 490 nm at 4 times of MIC concentration by congo red binding assay (reference value: 0.188 to 0.192); assay type: functional
[12] = system: Acinetobacter baumannii; experiment: Reduction of biofilm virulent factors in Acinetobacter baumannii assessed as decrease in extracellular polymeric substances (EPS) at 2 times of MIC concentration by congo red binding assay relative to control; assay type: functional; parameters: scale not given: the % may be the effect or the level left
[13] = system: Escherichia coli; experiment: Reduction of biofilm virulent factors in Escherichia coli ATCC 25922 assessed as decrease in extracellular polymeric substances (EPS) at 1/2 times of MIC concentration by congo red binding assay relative to control; assay type: functional; parameters: scale not given: the % may be the effect or the level left
[14] = system: Escherichia coli; experiment: Reduction of biofilm virulent factors in Escherichia coli ATCC 25922 assessed as decrease in extracellular polymeric substances (EPS) at 4 times of MIC concentration by congo red binding assay relative to control; assay type: functional; parameters: scale not given: the % may be the effect or the level left
[15] = system: Escherichia coli; experiment: Anti-bacterial activity against Escherichia coli ATCC 25922 assessed at fractional inhibitory concentration measured upto 9 hrs in presence of norfloxacin; assay type: functional
[16] = system: Acinetobacter baumannii; experiment: Anti-bacterial activity against Acinetobacter baumannii assessed as growth inhibition by measuring optical density measured at 4 time of MIC in presence of 2 times of MIC of norfloxacin by Checkerboard assay (reference value: 0.152); assay type: functional
[17] = system: Acinetobacter baumannii; experiment: Anti-bacterial activity against Acinetobacter baumannii assessed as growth inhibition by measuring optical density measured at 1 time of MIC in presence of 1/8 times of MIC of norfloxacin by Checkerboard assay (reference value: 0.157); assay type: functional
[18] = system: Acinetobacter baumannii; experiment: Anti-bacterial activity against Acinetobacter baumannii assessed as growth inhibition by measuring optical density measured at 1 time of MIC in presence of 1/2 times of MIC of norfloxacin by Checkerboard assay (reference value: 0.157); assay type: functional
[19] = system: Acinetobacter baumannii; experiment: Anti-bacterial activity against Acinetobacter baumannii assessed as growth inhibition by measuring optical density measured at 1/2 time of MIC in presence of 1/8 times of MIC of norfloxacin by Checkerboard assay (reference value: 0.152); assay type: functional
[20] = system: Acinetobacter baumannii; experiment: Anti-bacterial activity against Acinetobacter baumannii assessed as growth inhibition by measuring optical density measured at 1/2 time of MIC in presence of 2 times of MIC of norfloxacin by Checkerboard assay (reference value: 0.152); assay type: functional
[21] = system: Acinetobacter baumannii; experiment: Anti-bacterial activity against Acinetobacter baumannii assessed as growth inhibition by measuring optical density measured at 1/4 time of MIC in presence of 1/2 times of MIC of norfloxacin by Checkerboard assay (reference value: 0.152); assay type: functional
[22] = system: Acinetobacter baumannii; experiment: Anti-bacterial activity against Acinetobacter baumannii assessed as growth inhibition by measuring optical density measured at 1/4 time of MIC in presence of 2 times of MIC of norfloxacin by Checkerboard assay (reference value: 0.152); assay type: functional
[23] = system: Escherichia coli; experiment: Anti-bacterial activity against Escherichia coli ATCC 25922 assessed as growth inhibition by measuring optical density measured at 2 time of MIC in presence of 1/4 times of MIC of norfloxacin by Checkerboard assay (reference value: 0.128); assay type: functional
[24] = system: Escherichia coli; experiment: Anti-bacterial activity against Escherichia coli ATCC 25922 assessed as growth inhibition by measuring optical density measured at 1/2 time of MIC in presence of 1 times of MIC of norfloxacin by Checkerboard assay (reference value: 0.124); assay type: functional
[25] = system: Escherichia coli; experiment: Anti-bacterial activity against Escherichia coli ATCC 25922 assessed as growth inhibition by measuring optical density measured at 1/4 time of MIC in presence of 1/4 times of MIC of norfloxacin by Checkerboard assay (reference value: 0.128); assay type: functional
[26] = system: Acinetobacter baumannii; experiment: Induction of membrane disturbance in Acinetobacter baumannii assessed as increase in fluorescence intensity at 0.5 to 8 times of MIC concentration measured after 90 mins by Propidium iodide assay; assay type: functional, organism-based
[27] = system: Escherichia coli; experiment: Induction of membrane disturbance in Escherichia coli ATCC 25922 assessed as increase in fluorescence intensity at 0.5 to 8 times of MIC concentration measured after 90 mins by Propidium iodide assay; assay type: functional, organism-based
[28] = system: Cell membrane; experiment: Induction of membrane damage in Acinetobacter baumannii assessed as increase in fluorescence intensity at 1 to 4 times of MIC concentration measured after 90 mins by DiSC3 fluorescent probe assay; assay type: cell membranes
[29] = system: Cell membrane; experiment: Induction of physical destruction of cell membrane in Acinetobacter baumannii assessed as leakage of nucleic acid by measuring absorbance of 260 nm at 1/4 to 8 times of MIC concentration; assay type: cell membranes
[30] = system: Acinetobacter baumannii; experiment: Reduction in metabolic activity of Acinetobacter baumannii assessed as decrease in fluorescence intensity at 1/4 to 8 times of MIC measured after 6 hrs by resazurin sodium salt assay; assay type: functional, organism-based
[31] = system: Escherichia coli; experiment: Reduction in metabolic activity of Escherichia coli ATCC 25922 assessed as decrease in fluorescence intensity at 1/4 to 8 times of MIC measured after 6 hrs by resazurin sodium salt assay; assay type: functional, organism-based
[32] = system: Acinetobacter baumannii; experiment: Induction of ROS accumulation in Acinetobacter baumannii assessed as decrease in GSH activity by measuring reduced GSH to convert to oxidized GSSG at 1/4 to 2 times of MIC by Ellmans method; assay type: functional, organism-based
[33] = system: Escherichia coli; experiment: Induction of ROS accumulation in Escherichia coli ATCC 25922 assessed as decrease in GSH activity by measuring reduced GSH to convert to oxidized GSSG at 1/4 to 2 times of MIC by Ellmans metho; assay type: functional, organism-based
[34] = system: Calf thymus DNA; experiment: Binding affinity to calf thymus DNA assessed as compound/DNA binary complex by measuring increase in absorption at 260 nm by UV-vis/fluorescence spectroscopy; assay type: nucleic-acid assay; conditions: Bos taurus

## CCCCc1nc(Cl)c(C2NC(=O)NC(CN3CCN(C(=O)/C(=N/OC)c4csc(N)n4)CC3)=C2C(=O)OCC)[nH]1 (centres undefined)
[1]
  MIC: 13 µM (≈ 7.91 µg/mL)
[2]
  MIC: 53 µM (≈ 32.2 µg/mL)
[3]
  MIC: 26 µM (≈ 15.8 µg/mL)
[4]
  MIC: 7 µM (≈ 4.26 µg/mL)
[5]
  MIC: 422 µM (≈ 257 µg/mL)
[6]
  MIC: 53 µM (≈ 32.2 µg/mL)
[7]
  inhibition (INH): 23.5%
[8]
  inhibition (INH): >70.2%
[9]
  Activity: 18.6%
[10]
  Activity: Dose-Dependent Effect
[11]
  OD: 0.097
[12]
  Activity: 70.2%
[13]
  Activity: 64.4%
[14]
  Activity: 52.3%
[15]
  FIC: 0.5
[16]
  OD: 0.051
[17]
  OD: 0.116
[18]
  OD: 0.106
[19]
  OD: 0.117
[20]
  OD: 0.051
[21]
  OD: 0.125
[22]
  OD: 0.116
[23]
  OD: 0.102
[24]
  OD: 0.082
[25]
  OD: 0.127
[26]
  Activity: Active
[27]
  Activity: Active
[28]
  Activity: inactive
[29]
  Activity: Active
[30]
  Activity: Active
[31]
  Activity: Active
[32]
  Activity: Active
[33]
  Activity: Active
[34]
  Activity: Active
